One data set relates to Wistar rats. Briefly: Chronic constriction injury (CCI) rat model of neuropathy, paw withdrawal threshold with electronic von Frey. The format is in vivo. The following applies: 16.66 mg/kg. The text has this:
Furthermore, based on the article Bennett G J, at al (Pain, A peripheral mononeuropathy in rat that produces disorders of pain sensation like those seen in man. 1988 April; 33(1):87-107) we have developed a method for the examination of the compositions of the present invention. Thus, we have examined the compositions according to the present invention also with a different model for measuring the alleviation of the peripheral neuropathic pain also. Namely, we have carried out examinations on rats using Chronic constriction injury (CCI) model. Three weeks following nerve injury rats were assessed for hind paw mechanical withdrawal thresholds. The paw withdrawal threshold (PWT) was determined with an Electronic von Frey device according to the modified up-down method of Dixon (Efficient analysis of experimental observations, Annu Rev Pharmacol Toxicol. 1980; 20:441-62). […] The method and results are shown in example 3 and on FIG. 9.
Thus, the compositions of the present invention are effective in the treatment of neuropathic pain. […]
Briefly, under isoflurane anesthesia small blunt dissection was made into the skin of rat right thigh then three loosely constrictive ligatures were placed around common sciatic nerve (chronic constriction injury CCI). Three weeks following nerve injury rats were assessed for hind paw mechanical withdrawal thresholds. […]

Another data set can be described thus: Solubility of pregabalin. As to conditions: in any solvents.
Data set [1] in a line: Pharmacokinetic studies (blood levels of pregabalin). The following applies: during topical treatment.

As to `CC(C)C[C@H](CN)CC(=O)O` [pregabalin], the “reduction of hypersensitivity after oral administration” value with Wistar rats was “not able to reduce hypersensitivity”. Moreover, in the data set “Solubility of pregabalin”, the Solubility entry is listed as “poor”. For the same molecule, in data set [1], the “amount of pregabalin entering the bloodstream” value was “very small amounts”.

The values are drawn from patent publication US20240091138A1, “TOPICAL C[…]” (EGIS GYÓGYSZERGYÁR ZRT., priority 2021, published 2024).
